Results from US20120046363A1, “DOCOSAHEXAENOIC ACID FOR THE TREATMENT OF HEART FAILURE” (University of Maryland, Baltimore, priority 2009, published 2012).

Legend:
[1] = mammalian cells; cited from earlier work
[2] = Rat abdominal aortic constriction (banding) pressure overload model of HF; type: in vivo, male Wistar rats; settings: rats with aortic banding; ALA from flaxseed oil
Text: A dose-response study was completed with EPA+DHA from fish oil using the rat abdominal aortic constriction pressure overload model of HF. In this model a permanent band is tied around the supra-renal abdominal aorta of male Wistar rats (˜200 g) by placing a blunt needle (20G) along the aorta and tying a 3-0 silk suture around both the aorta and the needle. The needle is removed, leaving the diameter of the aortic lumen determined by the diameter of the needle. The increase in aortic pressure results in progressive LV hypertrophy, mitochondrial dysfunction and decreased activity of mitochondrial enzymes, and LV dilation and contractile dysfunction and thus HF^2, 207-213.
Rats were subjected to abdominal aortic banding and assigned them to 12 wks of treatment with either a standard chow or chow supplemented with EPA+DHA from fish oil at either 0.7, 2.3 or 7% of the total energy intake, with an EPA/DHA ration at a 30/70 mix, respectively. These doses correspond to estimated human doses of 1.6, 5.1 and 15.6 g/day (calculated assuming an energy intake of 2000 kcals/day in humans, and 9 kcals/g of EPA+DHA), thus we spanned both sides of the FDA approved human dose of 3.4 g/day. […] There were no differences in body mass or heart rate among groups. LV mass was 37% greater in the banded rats compared to sham on the standard diet. […]

[3] = similar patient population to GISSI-HF; cited from earlier work

SMILES | conversion of ALA to EPA [1] | cardiomyocyte apoptosis with supplementation [2] | beneficial effect in HF patients [3]
CC/C=C\C/C=C\C/C=C\CCCCCCCC(=O)O [ALA, α-linolenic acid] | ~10% | less apoptosis | 
CC(C)c1nc(N(C)S(C)(=O)=O)nc(-c2ccc(F)cc2)c1/C=C/[C@@H](O)C[C@@H](O)CC(=O)O [rosuvastatin] |  |  | no beneficial effect
